{"source": "patent US8835447B2", "about": "“Method for treating androgen receptor positive cancers” (priority 2009, dated 2014)", "key": {"[1]": {"test_system": "C4-2 tumors", "assay": "C4-2 xenograft model in nude mice", "assay_type": "in vivo, mouse", "conditions": "6 daily i.p. injections, 100xIC50 dose", "from_the_text": "FIGS. 6A and 6B provide data showing anti-tumor activity of the selected hits in mouse models of androgen-independent PCa. FIG. 6A provides a graphical representation of data obtained from i.p. injection of the listed compounds or DMSO vehicle into nude mice carrying subcutaneous (s.c.) C4-2 tumors. Six daily injections were given starting when tumors were around 100 mm3 in size. There were 4-5 mice per group with two tumors per mouse. Asterisks (*) and number signs (#) are placed under the means of measurement in the c6 and c11 groups respectively which are statistically different from the control group by ANOVA test (>99%) B. C52 (9 mg/kg or 18 mg/kg) or DMSO vehicle was injected into the tail vein of nude mice carrying s.c. CWR22R tumors. Five daily injections were given starting when tumors were around 40 mm3 in size. There were 10 mice per group with one tumor per mouse. Asterisks (*) are placed under the means of measurement which are statistically different from the control group by ANOVA test (>99%). Error bars in both FIGS. 6A and B—standard deviation between the size of tumors within a given treatment group.\nTesting of the anti-tumor effect of compounds in mice was done according to an IACUC-approved protocol in 8 week old male athymic nude mice from Harlan (Indianapolis, Ind.). For the C4-2 xenograft model, 10^6 C4-2 cells were injected subcutaneously (s.c.) in 2 sites of each mouse in 50% matrigel (BD Biosciences, Bradford, Mass.) in PBS. Upon development of visible tumors, they were measured using digital caliper. Tumor volume was calculated according to the formula: […]. Mice were injected with compounds i.p. daily for 6 days starting on the day when at least one tumor per mouse reached 100 mm^3 in size. Five mice per group were used. For the CWR22R xenograft model, CWR22R cells were inoculated (10^5 cells per inoculum) in 50% matrigel, one site per mouse. Treatment was started when the tumor grew to a size of at least 25 mm^3. Compounds were diluted in captisol (CyDex, Lenexa, Kans.) and delivered intravenously (to reduce “first pass” liver effect) once a day for 5 days. Ten mice per group were used. Mice were monitored daily and tumors were measured every other day. Mice were euthanized according to institutional regulations when the size of tumor reached 1000 mm^3. Comparison of the tumor growth in control and treated mice was done using ANOVA test.\nWe evaluated the potential anti-tumor effect of the hits using C4-2 and CWR22R xenograft models of androgen-independent PCa in nude mice. Groups of C4-2 tumor-bearing mice (4-5 mice per group, each with two tumors) were given 6 daily i.p. injections of compound (100×IC50 dose) or DMSO vehicle."}, "[2]": {"test_system": "CWR22R cells", "assay": "Cell cycle distribution by propidium iodide staining", "assay_type": "cell-based, human", "conditions": "propidium iodide FACS", "experimental": "Analysis of cell cycle distribution was based on staining of DNA content by propidium iodide. 10^5 cells were removed from culture dishes using trypsin, washed with PBS and resuspended in 300 μl 3% BSA in PBS, followed by addition of […] 70% ethanol. Cells were kept at −20° C. for several hours and then stained with 10 μg/ml propidium iodide in the presence of 30 μg/ml RNase A for 2 hrs at 37° C. DNA content was assessed using a FACS Calibur instrument and CellQuest software (Becton Dickinson, Franklin Lakes, N.J.).\nTo test this possibility, we assessed the cell cycle distribution of CWR22R cells treated with both categories of compounds. […] Therefore, different subsets of compounds inhibiting AR-dependent transcription in androgen-independent PCa cells cause either growth arrest or apoptosis in these cells. Whether a compound causes growth arrest or apoptosis is not determined by the potency of the compound as an inhibitor of AR-dependent transcription (i.e., FIG. 2B)."}, "[3]": {"test_system": "AR-expressing PCa cell lines (LNCaP, C4-2, CWR22R)", "assay": "Toxicity to AR-expressing PCa cell lines (colony formation / dose-dependent growth inhibition)", "assay_type": "cell-based, human", "experimental": "(§1) Cell Colony Assay: Cells were plated in 24-well plates at a density allowing 6-7 days of exponential growth before confluency. Medium and compound was replaced every 48 hours to minimize the effect of potential compound instability. After 7 days of incubation in the presence of compound, cells were fixed and stained with methylene blue, followed by extraction of the stain with 1% SDS and spectrophotometry at 650 nm. Each assay was run in triplicate and the difference between control and compound-treated wells was determined using Student's t-test.\nDose-dependent inhibition of cell growth: Cells were plated at 1×10^3 cells per well in 96-well plates. Compounds were added in a dose range from 1 to 20000 nM in two-fold increments. Each dose was tested in triplicate. Controls were 0.1% DMSO (no effect on cell viability) and 50 μM 9-aminoacridine (complete cell death). Cells were incubated for 6 days and then fixed and stained with methylene blue, followed by extraction of the stain with 1% SDS and spectrophotometry at 650 nm. The assay was run two times and, based on the results, the inhibitory concentration of compound suppressing cell growth by 50% as compared to DMSO (IC50) was calculated by the sigmoid approximation method using CalcuSyn software (Biosoft, Chembridge, UK). Confidence intervals were calculated for each sigmoid.\nThis Example provides a description of the effect of the selected compounds on the growth of PCa cells. To test the toxicity of the identified AR inhibitors towards cells of different origins, we performed colony formation assays using a single dose of each compound (10 μM) on several PCa (LNCaP, C4-2, CWR22R and DU145) and two non-PCa (HT1080 and HeLa) cell lines (FIG. 2A). […] These compounds were not weaker inhibitors of AR transcriptional activity in CWR22R or C4-2 cells than compounds that inhibited growth of the cells. […]"}, "[4]": {"test_system": "HT1080, HeLa and DU145 cells", "assay": "Colony formation assay, non-PCa and AR-negative PCa cells", "assay_type": "cell-based, human", "conditions": "10 μM, 7 days", "experimental": "as §1\nThis Example provides a description of the effect of the selected compounds on the growth of PCa cells. To test the toxicity of the identified AR inhibitors towards cells of different origins, we performed colony formation assays using a single dose of each compound (10 μM) on several PCa (LNCaP, C4-2, CWR22R and DU145) and two non-PCa (HT1080 and HeLa) cell lines (FIG. 2A). […] These compounds were not weaker inhibitors of AR transcriptional activity in CWR22R or C4-2 cells than compounds that inhibited growth of the cells."}}, "note": "“Also recorded” adds a separate entry of the source.", "data": [{"smiles": "CCCn1c2ccccc2c2cc(C(C)=O)ccc21", "note": "[c52]", "values": [{"measurement": "C4-2 tumor growth", "setting": "[1]", "result": "did not"}, {"measurement": "C4-2 tumor growth", "setting": "[1]; listed as C52", "result": "did not show in vivo efficacy"}, {"measurement": "cells with sub-G1 DNA content (apoptotic)", "setting": "[2]", "result": "appearance of cells with sub-G1 DNA content"}, {"measurement": "toxicity towards AR-expressing PCa cell lines", "setting": "[3]; colony formation, 10 μM, three AR-expressing PCa cell lines", "result": "different degrees of toxicity; also recorded: kill all PCa cells expressing AR"}, {"measurement": "degree of toxicity to PCa cells (killing vs reduced growth)", "setting": "[3]; dose-dependent toxicity, by day 7", "result": "kill practically all of the PCa cells in the culture by day 7"}, {"measurement": "growth of / toxicity towards non-PCa cells or AR-negative PCa cells (DU145)", "setting": "[4]", "result": "no toxicity"}]}]}
